In patent US20250098679A1, “HERBICIDAL PYRIDONE DERIVATIVES” (SYNGENTA CROP PROTECTION AG, priority 2021, published 2025):

Assays:
Type in all cases: in vivo
[1] = system: Zea mays (ZEAMX); experiment: Post-emergence Test, Zea mays (ZEAMX); design: key to percentage damage caused to the plant, ZEAMX (five-point scale): 5=81-100%, 4=61-80%, 3=41-60%, 2=21-40%, 1=0-20% damage; conditions: evaluated after 13 days
Description: (§1) Seeds of a variety of test species are sown in standard soil in pots (Setaria faberi (SETFA), Echinochloa crus-galli (ECHCG), Zea mays (ZEAMX), Ipomoea hederacea (IPOHE), Amaranthus palmeri (AMAPA), Amaranthus retoflexus (AMARE)). After 8 days cultivation under controlled conditions in a glasshouse (at 24° C./16° C., day/night; 14 hours light; 65% humidity), the plants are sprayed with an aqueous spray solution derived from the formulation of the technical active ingredient in acetone/water (50:50) solution containing 0.5% Tween 20 (polyoxyethelyene sorbitan monolaurate, CAS RN 9005-64-5). Compounds are applied at 1000 g/ha unless otherwise stated. The test plants are then grown in a glasshouse under controlled conditions in a glasshouse (at 24° C./16° C., day/night; 14 hours light; 65% humidity) and watered twice daily. After 13 days the test is evaluated for the percentage damage caused to the plant. The biological activities are shown in the following table on a five-point scale (5=81-100%; 4=61-80%; 3=41-60%; 2=21-40%; 1=0-20%; -=not tested).

[2] = system: Ipomoea hederacea (IPOHE); experiment: Post-emergence Test, Ipomoea hederacea (IPOHE); design: key to percentage damage caused to the plant, IPOHE (five-point scale): 5=81-100%, 4=61-80%, 3=41-60%, 2=21-40%, 1=0-20% damage; conditions: evaluated after 13 days
Description: as §1

[3] = system: Setaria faberi (SETFA); experiment: Post-emergence Test, Setaria faberi (SETFA); design: key to percentage damage caused to the plant, SETFA (five-point scale): 5=81-100%, 4=61-80%, 3=41-60%, 2=21-40%, 1=0-20% damage; conditions: evaluated after 13 days
Description: as §1

[4] = system: Amaranthus palmeri (AMAPA); experiment: Post-emergence Test, Amaranthus palmeri (AMAPA); design: key: 5=81-100%, 4=61-80%, 3=41-60%, 2=21-40%, 1=0-20% damage; conditions: evaluated after 13 days
Description: as §1

[5] = system: Echinochloa crus-galli (ECHCG); experiment: Post-emergence Test, Echinochloa crus-galli (ECHCG); design: key to percentage damage caused to the plant, ECHCG (five-point scale): 5=81-100%, 4=61-80%, 3=41-60%, 2=21-40%, 1=0-20% damage; conditions: evaluated after 13 days; for Post-emergence Test ECHCG, percentage damage caused to the plant (five-point scale): 250 g/Ha (*)
Description: as §1

[6] = system: Amaranthus retoflexus (AMARE); experiment: Post-emergence Test, Amaranthus retoflexus (AMARE); design: key to percentage damage caused to the plant, AMARE (five-point scale): 5=81-100%, 4=61-80%, 3=41-60%, 2=21-40%, 1=0-20% damage; conditions: evaluated after 13 days
Description: as §1

SMILES: CCn1c(Cn2ccc(-c3ccncc3)n2)cc(=O)c(C(=O)O)c1-c1ccc(Cl)c(Cl)c1 [Compound 195, 2-(3,4-dichlorophenyl)-1-ethyl-4-oxo-6-[[3-(4-pyridyl)pyrazol-1-yl]methyl]pyridine-3-carboxylic acid]
- Post-emergence Test ZEAMX, percentage damage caused to the plant (five-point scale) ([1]; 250 g/Ha (*)): 0
- Post-emergence Test ZEAMX, percentage damage caused to the plant (five-point scale) ([1]; 1000 g/ha): 1 (1=0-20%)
- Post-emergence Test IPOHE, percentage damage caused to the plant (five-point scale) ([2]; 250 g/Ha (*)): 0
- Post-emergence Test IPOHE, percentage damage caused to the plant (five-point scale) ([2]; 1000 g/ha): 1 (1=0-20%)
- Post-emergence Test SETFA, percentage damage caused to the plant (five-point scale) ([3]; 1000 g/ha): 2 (2=21-40%)
- Post-emergence Test AMAPA, percentage damage caused to the plant (five-point scale) ([4]; 250 g/Ha (*)): 0
- Post-emergence Test AMAPA, percentage damage caused to the plant (five-point scale) ([4]; 1000 g/ha): 0
- Post-emergence Test ECHCG, percentage damage caused to the plant (five-point scale) [5]: 1 (1=0-20%)
- Post-emergence Test AMARE, percentage damage caused to the plant (five-point scale) ([6]; 250 g/Ha (*)): 0
- Post-emergence Test AMARE, percentage damage caused to the plant (five-point scale) ([6]; 1000 g/ha): 1 (1=0-20%)

SMILES: CCOCc1ccnn1Cc1cc(=O)c(C(=O)O)c(-c2ccc(Cl)c(Cl)c2)n1CC [Compound 188, 2-(3,4-dichlorophenyl)-6-[[5-(ethoxymethyl)pyrazol-1-yl]methyl]-1-ethyl-4-oxo-pyridine-3-carboxylic acid]
- percentage damage caused to the plant, ZEAMX (five-point scale) ([1]; 1000 g/ha): 0
- percentage damage caused to the plant, IPOHE (five-point scale) ([2]; 1000 g/ha): 1 (1=0-20%)
- percentage damage caused to the plant, SETFA (five-point scale) ([3]; 1000 g/ha): 0
- percentage damage caused to the plant, AMAPA (five-point scale) ([4]; 1000 g/ha): 1 (1=0-20%)
- percentage damage caused to the plant, ECHCG (five-point scale) ([5]; 1000 g/ha): 0
- percentage damage caused to the plant, AMARE (five-point scale) ([6]; 1000 g/ha): 0

SMILES: CCn1c(Cn2cnc(C(F)(F)F)c2)cc(=O)c(C(=O)O)c1-c1ccc(Cl)c(Cl)c1 [Compound 10, 2-(3,4-dichlorophenyl)-1-ethyl-4-oxo-6-[[4-(trifluoromethyl)imidazol-1-yl]methyl]pyridine-3-carboxylic acid]
- percentage damage caused to the plant, ZEAMX (five-point scale) ([1]; 1000 g/ha): 1 (1=0-20%)
- percentage damage caused to the plant, IPOHE (five-point scale) ([2]; 1000 g/ha): 1 (1=0-20%)
- percentage damage caused to the plant, SETFA (five-point scale) ([3]; 1000 g/ha): 0
- percentage damage caused to the plant, AMAPA (five-point scale) ([4]; 1000 g/ha): 0
- percentage damage caused to the plant, ECHCG (five-point scale) ([5]; 1000 g/ha): 0
- percentage damage caused to the plant, AMARE (five-point scale) ([6]; 1000 g/ha): 0

SMILES: C/C=C/C(=O)Nc1ccn(Cc2cc(=O)c(C(=O)O)c(-c3ccc(Cl)c(Cl)c3)n2CC)n1 [Compound 155, 6-[[3-[[(E)-but-2-enoyl]amino]pyrazol-1-yl]methyl]-2-(3,4-dichlorophenyl)-1-ethyl-4-oxo-pyridine-3-carboxylic acid]
- percentage damage caused to the plant, ZEAMX (five-point scale) ([1]; 250 g/Ha): 0
- percentage damage caused to the plant, ZEAMX (five-point scale) ([1]; 1000 g/ha): 0
- percentage damage caused to the plant, IPOHE (five-point scale) ([2]; 250 g/Ha): 1 (1=0-20%)
- percentage damage caused to the plant, IPOHE (five-point scale) ([2]; 1000 g/ha): 0
- percentage damage caused to the plant, SETFA (five-point scale) ([3]; 250 g/Ha): 1 (1=0-20%)
- percentage damage caused to the plant, SETFA (five-point scale) ([3]; 1000 g/ha): 0
- percentage damage caused to the plant, AMAPA (five-point scale) ([4]; 250 g/Ha): 1 (1=0-20%)
- percentage damage caused to the plant, AMAPA (five-point scale) ([4]; 1000 g/ha): 1 (1=0-20%)
- percentage damage caused to the plant, ECHCG (five-point scale) ([5]; 250 g/Ha): 1 (1=0-20%)
- percentage damage caused to the plant, ECHCG (five-point scale) ([5]; 1000 g/ha): 1 (1=0-20%)
- percentage damage caused to the plant, AMARE (five-point scale) ([6]; 250 g/Ha): 1 (1=0-20%)
- percentage damage caused to the plant, AMARE (five-point scale) ([6]; 1000 g/ha): 0

SMILES: CCn1c(Cn2ccc(-c3ccc(Cl)cc3)n2)cc(=O)c(C(=O)O)c1-c1ccc(Cl)c(Cl)c1 [Compound 199, 6-[[3-(4-chlorophenyl)pyrazol-1-yl]methyl]-2-(3,4-dichlorophenyl)-1-ethyl-4-oxo-pyridine-3-carboxylic acid]
- Post-emergence Test ZEAMX, percentage damage caused to the plant (five-point scale) ([1]; 250 g/Ha (*)): 0
- Post-emergence Test ZEAMX, percentage damage caused to the plant (five-point scale) ([1]; 1000 g/ha): 0
- Post-emergence Test IPOHE, percentage damage caused to the plant (five-point scale) ([2]; 250 g/Ha (*)): 0
- Post-emergence Test IPOHE, percentage damage caused to the plant (five-point scale) ([2]; 1000 g/ha): 2 (2=21-40%)
- Post-emergence Test SETFA, percentage damage caused to the plant (five-point scale) ([3]; 1000 g/ha): 0
- Post-emergence Test AMAPA, percentage damage caused to the plant (five-point scale) ([4]; 250 g/Ha (*)): 0
- Post-emergence Test AMAPA, percentage damage caused to the plant (five-point scale) ([4]; 1000 g/ha): 0
- Post-emergence Test ECHCG, percentage damage caused to the plant (five-point scale) [5]: 1 (1=0-20%)
- Post-emergence Test AMARE, percentage damage caused to the plant (five-point scale) ([6]; 250 g/Ha (*)): 0
- Post-emergence Test AMARE, percentage damage caused to the plant (five-point scale) ([6]; 1000 g/ha): 0

SMILES: CCn1c(Cn2ccc(O)n2)cc(=O)c(C(=O)O)c1-c1ccc(Cl)c(Cl)c1 [Compound 167, 2-(3,4-dichlorophenyl)-1-ethyl-6-[(3-hydroxypyrazol-1-yl)methyl]-4-oxo-pyridine-3-carboxylic acid]
- percentage damage caused to the plant, ZEAMX (five-point scale) ([1]; 1000 g/ha): 0
- percentage damage caused to the plant, IPOHE (five-point scale) ([2]; 1000 g/ha): 0
- percentage damage caused to the plant, SETFA (five-point scale) ([3]; 1000 g/ha): 0
- percentage damage caused to the plant, AMAPA (five-point scale) ([4]; 1000 g/ha): 1 (1=0-20%)
- percentage damage caused to the plant, ECHCG (five-point scale) ([5]; 1000 g/ha): 0
- percentage damage caused to the plant, AMARE (five-point scale) ([6]; 1000 g/ha): 0

SMILES: CCn1c(Cn2cnc(C(=O)OC)c2C(=O)OC)cc(=O)c(C(=O)O)c1-c1ccc(Cl)c(Cl)c1 [Compound 111, 6-[[4,5-bis(methoxycarbonyl)imidazol-1-yl]methyl]-2-(3,4-dichlorophenyl)-1-ethyl-4-oxo-pyridine-3-carboxylic acid]
- percentage damage caused to the plant, ZEAMX (five-point scale) ([1]; 1000 g/ha): 0
- percentage damage caused to the plant, IPOHE (five-point scale) ([2]; 1000 g/ha): 0
- percentage damage caused to the plant, SETFA (five-point scale) ([3]; 1000 g/ha): 1 (1=0-20%)
- percentage damage caused to the plant, AMAPA (five-point scale) ([4]; 1000 g/ha): 1 (1=0-20%)
- percentage damage caused to the plant, ECHCG (five-point scale) ([5]; 1000 g/ha): 2 (2=21-40%)
- percentage damage caused to the plant, AMARE (five-point scale) ([6]; 1000 g/ha): 1 (1=0-20%)

SMILES: CCn1c(Cn2ccc(C(F)(F)F)n2)cc(=O)c(C(=O)O)c1-c1ccc(N)c(Cl)c1 [Compound 133, 2-(4-amino-3-chloro-phenyl)-1-ethyl-4-oxo-6-[[3-(trifluoromethyl)pyrazol-1-yl]methyl]pyridine-3-carboxylic acid]
- percentage damage caused to the plant, ZEAMX (five-point scale) ([1]; 250 g/Ha): 0
- percentage damage caused to the plant, ZEAMX (five-point scale) ([1]; 1000 g/ha): 0
- percentage damage caused to the plant, IPOHE (five-point scale) ([2]; 250 g/Ha): 0
- percentage damage caused to the plant, IPOHE (five-point scale) ([2]; 1000 g/ha): 1 (1=0-20%)
- percentage damage caused to the plant, SETFA (five-point scale) ([3]; 250 g/Ha): 1 (1=0-20%)
- percentage damage caused to the plant, SETFA (five-point scale) ([3]; 1000 g/ha): 0
- percentage damage caused to the plant, AMAPA (five-point scale) ([4]; 250 g/Ha): 1 (1=0-20%)
- percentage damage caused to the plant, AMAPA (five-point scale) ([4]; 1000 g/ha): 1 (1=0-20%)
- percentage damage caused to the plant, ECHCG (five-point scale) ([5]; 250 g/Ha): 0
- percentage damage caused to the plant, ECHCG (five-point scale) ([5]; 1000 g/ha): 0
- percentage damage caused to the plant, AMARE (five-point scale) ([6]; 250 g/Ha): 1 (1=0-20%)
- percentage damage caused to the plant, AMARE (five-point scale) ([6]; 1000 g/ha): 1 (1=0-20%)

SMILES: CCOC(=O)c1c(-c2ccc(Cl)c(Cl)c2)n(CC)c(Cn2cnc(Cl)c2Cl)cc1=O [Compound 68, ethyl 6-[(4,5-dichloroimidazol-1-yl)methyl]-2-(3,4-dichlorophenyl)-1-ethyl-4-oxo-pyridine-3-carboxylate]
- percentage damage caused to the plant, ZEAMX (five-point scale) ([1]; 250 g/Ha): 1 (1=0-20%)
- percentage damage caused to the plant, ZEAMX (five-point scale) ([1]; 1000 g/ha): 0
- percentage damage caused to the plant, IPOHE (five-point scale) ([2]; 250 g/Ha): 1 (1=0-20%)
- percentage damage caused to the plant, IPOHE (five-point scale) ([2]; 1000 g/ha): 1 (1=0-20%)
- percentage damage caused to the plant, SETFA (five-point scale) ([3]; 250 g/Ha): 1 (1=0-20%)
- percentage damage caused to the plant, SETFA (five-point scale) ([3]; 1000 g/ha): 1 (1=0-20%)
- percentage damage caused to the plant, AMAPA (five-point scale) ([4]; 250 g/Ha): 1 (1=0-20%)
- percentage damage caused to the plant, AMAPA (five-point scale) ([4]; 1000 g/ha): 1 (1=0-20%)
- percentage damage caused to the plant, ECHCG (five-point scale) ([5]; 250 g/Ha): 0
- percentage damage caused to the plant, ECHCG (five-point scale) ([5]; 1000 g/ha): 1 (1=0-20%)
- percentage damage caused to the plant, AMARE (five-point scale) ([6]; 250 g/Ha): 1 (1=0-20%)
- percentage damage caused to the plant, AMARE (five-point scale) ([6]; 1000 g/ha): 1 (1=0-20%)
